In patent US20140007865A1, “OLOPATADINE NASAL SPRAY REGIMEN FOR CHILDREN” (Alcon Research, Ltd., priority 2009, published 2014):

Assay: Acid-base equilibrium (pKa) of olopatadine
Type: physicochemical
From the text: Olopatadine has both a carboxylic functional group (pKa1=4.18) and a tertiary amino group (pKa2=9.79). It exists in different ionic forms depending upon the pH of the solution. Olopatadine exists predominantly as a zwitterion in the pH range between the two pKa values with a negatively-charged carboxylic group and a positively-charged tertiary amino group. The iso-electric point of the olopatadine zwitterion is at pH 6.99. At a pH lower than pKa1, cationic olopatadine (with ionized tertiary amino group) is dominant. At a pH higher than pKa2, anionic olopatadine (with ionized carboxylic group) is dominant.

CN(C)CC/C=C1/c2ccccc2COc2ccc(CC(=O)O)cc21 [Olopatadine, Z-11-(3-dimethylaminopropylidene)-6,1′-dihydrodibenz[b,e]oxepine-2-acetic acid]
iso-electric point of the olopatadine zwitterion: 6.99 pH
pKa1 (carboxylic functional group): 4.18
pKa2 (tertiary amino group): 9.79
